The record followed here is patent US20240327364A1, “THERAPEUTIC TARGETING OF GPR68 TO INDUCE FERROPTOSIS” (University Of Maryland, Baltimore, priority 2023, published 2024).

Data set [1] deals with T1, ACVR1 (Homo sapiens, UniProt Q04771).
T1 construct: purchased DiscoveRx
Kind of data set: KinomeScan. Type of data set: binding. The note with it: read-out: % Control.

Data set [2] addresses T2, ACVRLI (Homo sapiens, UniProt P37023).
T2 construct: purchased DiscoveRx
Nature of the data set: KinomeScan. Type of data set: binding. Conditions: read-out: % Control.

Data set [3] deals with T3, CDC2L2 (Homo sapiens, UniProt Q9UQ88).
T3 construct: purchased DiscoveRx (KinomeScan service)
Nature of the data set: KinomeScan. Type of data set: binding. The note with it: read-out: % Control.

Data set [4] addresses T4, CDK7 (Homo sapiens, UniProt P50613).
T4 construct: purchased DiscoveRx (KinomeScan service)
Nature of the data set: KinomeScan. The class given is binding. The note with it: read-out: % Control.

For data set [5], the target named is CSK (Homo sapiens, UniProt P41240). Kind of data set: KinomeScan. The note with it: read-out: % Control. The class given is binding.
Chain of CSK (P41240 whole entry): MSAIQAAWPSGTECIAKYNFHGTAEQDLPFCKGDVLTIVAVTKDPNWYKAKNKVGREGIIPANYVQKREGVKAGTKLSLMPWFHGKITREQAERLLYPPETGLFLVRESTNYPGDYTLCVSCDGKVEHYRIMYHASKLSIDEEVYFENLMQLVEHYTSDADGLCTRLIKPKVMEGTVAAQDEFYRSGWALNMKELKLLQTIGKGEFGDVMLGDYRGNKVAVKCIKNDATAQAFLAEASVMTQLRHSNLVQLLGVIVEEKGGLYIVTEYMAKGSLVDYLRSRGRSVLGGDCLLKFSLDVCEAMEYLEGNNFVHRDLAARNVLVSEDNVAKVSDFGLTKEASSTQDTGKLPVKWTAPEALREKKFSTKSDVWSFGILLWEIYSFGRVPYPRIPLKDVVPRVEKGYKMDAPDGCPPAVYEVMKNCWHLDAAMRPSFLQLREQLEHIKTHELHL
The target of data set [6] is T5, DRAK2 (Homo sapiens, UniProt O94768).
T5 construct: purchased DiscoveRx (Fremont, CA), KinomeScan service
T5 sequence (O94768 whole entry): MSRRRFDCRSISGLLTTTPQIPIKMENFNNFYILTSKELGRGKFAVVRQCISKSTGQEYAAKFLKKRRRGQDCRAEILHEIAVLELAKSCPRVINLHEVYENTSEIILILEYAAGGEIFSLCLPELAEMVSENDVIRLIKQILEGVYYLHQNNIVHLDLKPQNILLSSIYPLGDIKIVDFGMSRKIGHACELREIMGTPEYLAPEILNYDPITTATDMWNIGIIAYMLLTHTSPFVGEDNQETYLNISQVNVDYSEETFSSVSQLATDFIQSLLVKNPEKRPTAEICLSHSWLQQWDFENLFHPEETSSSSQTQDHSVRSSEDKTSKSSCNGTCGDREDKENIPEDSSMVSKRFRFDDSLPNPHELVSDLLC
Kind of data set: KinomeScan. Type of data set: binding. The note with it: read-out: % Control.

In data set [7] the test system is FLT3(ITD). Nature of the data set: KinomeScan. Type of data set: binding. Conditions: 10 uM.
In data set [8] the target is T6, IKK-beta (Homo sapiens, UniProt O14920).
T6 construct: purchased DiscoveRx (Fremont, CA)
Kind of data set: KinomeScan. The class given is binding. The note with it: read-out: % Control.

In data set [9] the target is T7, JAK2(JH1domain-catalytic) (Homo sapiens, UniProt O60674).
T7 construct: JAK2(JH1domain-catalytic); purchased DiscoveRx (Fremont, CA)
Kind of data set: KinomeScan. The class given is binding. Conditions: read-out: % Control.

For data set [10], the target named is T8, KIT(V559D, V654A) (Homo sapiens, UniProt P10721, V559D/V654A).
T8 construct: purchased DiscoveRx
Nature of the data set: KinomeScan. The note with it: read-out: % Control. Type of data set: binding.

Data set [11] concerns the target T9, MLK1 (Homo sapiens, UniProt P80192).
T9 construct: purchased DiscoveRx
Kind of data set: KinomeScan. The class given is binding. Conditions: read-out: % Control.

The target of data set [12] is T10, NEK2 (Homo sapiens, UniProt P51955).
T10 construct: purchased DiscoveRx
Kind of data set: KinomeScan. Conditions: read-out: % Control. The class given is binding.

Data set [13] has as its target T11, PIK3CA(Q546K) (Homo sapiens, UniProt P42336, Q546K).
T11 construct: purchased DiscoveRx (Fremont, CA)
Nature of the data set: KinomeScan. Type of data set: binding. Conditions: read-out: % Control.

The target of data set [14] is T12, PKAC-alpha (Homo sapiens, UniProt P17612).
T12 construct: purchased DiscoveRx (Fremont, CA)
Kind of data set: KinomeScan. The class given is binding. The note with it: read-out: % Control.

Data set [15] addresses T13, PKAC-beta (Homo sapiens, UniProt P22694).
T13 construct: purchased DiscoveRx (Fremont, CA)
Nature of the data set: KinomeScan. The class given is binding. Conditions: read-out: % Control.

The target in data set [16] is T14, RIOK3 (Homo sapiens, UniProt O14730).
T14 construct: purchased DiscoveRx (Fremont, CA)
T14 sequence (O14730 whole entry): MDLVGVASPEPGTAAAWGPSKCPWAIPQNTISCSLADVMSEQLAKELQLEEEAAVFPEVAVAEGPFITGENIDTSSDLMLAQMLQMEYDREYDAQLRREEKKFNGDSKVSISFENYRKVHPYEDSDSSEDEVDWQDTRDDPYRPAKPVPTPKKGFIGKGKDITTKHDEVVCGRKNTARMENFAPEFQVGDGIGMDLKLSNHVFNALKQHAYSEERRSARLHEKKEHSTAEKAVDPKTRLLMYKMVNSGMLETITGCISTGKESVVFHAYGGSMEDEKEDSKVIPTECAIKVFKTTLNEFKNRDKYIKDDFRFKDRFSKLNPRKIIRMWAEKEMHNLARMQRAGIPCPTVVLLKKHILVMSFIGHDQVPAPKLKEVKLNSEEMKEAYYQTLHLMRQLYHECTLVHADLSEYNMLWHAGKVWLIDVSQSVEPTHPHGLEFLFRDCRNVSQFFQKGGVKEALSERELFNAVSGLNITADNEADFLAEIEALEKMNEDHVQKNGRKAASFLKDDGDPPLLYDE
Nature of the data set: KinomeScan. Type of data set: binding. The note with it: read-out: % Control.

Data set [17] addresses T15, RPS6KA4(Kin.Dom.2-C-terminal) (Homo sapiens, UniProt O75676).
T15 construct: RPS6KA4(Kin.Dom.2-C-terminal); purchased DiscoveRx (Fremont, CA)
Kind of data set: KinomeScan. The class given is binding. The note with it: read-out: % Control.

Data set [18] has as its target T16, WEE2 (Homo sapiens, UniProt P0C1S8).
T16 construct: purchased DiscoveRx
Kind of data set: KinomeScan. The note with it: read-out: % Control. Type of data set: binding.

Data set [19] addresses T17, C5aR (Homo sapiens, UniProt P21730).
T17 construct: host or cells: Chem-1 cells with promiscuous Gα15
Nature of the data set: GPCR Profiler. The class given is cell-based.

Data set [20] concerns the target T18, CCR2B (Homo sapiens, UniProt P41597).
T18 construct: host or cells: Chem-1 cells with Gα15
Nature of the data set: GPCR Profiler. The class given is cell-based.

The target in data set [21] is T19, EP1 (Homo sapiens, UniProt P34995).
T19 construct: host or cells: Chem-1 cells expressing Gα15
T19 sequence (P34995 whole entry): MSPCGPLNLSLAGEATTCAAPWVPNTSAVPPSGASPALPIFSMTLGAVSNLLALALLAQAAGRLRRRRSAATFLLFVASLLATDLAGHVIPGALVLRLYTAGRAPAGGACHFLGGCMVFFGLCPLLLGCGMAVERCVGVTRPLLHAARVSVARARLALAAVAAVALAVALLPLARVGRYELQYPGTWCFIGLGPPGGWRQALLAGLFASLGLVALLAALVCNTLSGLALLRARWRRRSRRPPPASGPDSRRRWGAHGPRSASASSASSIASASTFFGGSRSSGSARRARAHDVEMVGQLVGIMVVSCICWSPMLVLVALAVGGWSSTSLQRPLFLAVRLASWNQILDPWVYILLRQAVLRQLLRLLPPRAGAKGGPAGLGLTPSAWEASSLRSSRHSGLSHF
Nature of the data set: GPCR Profiler. The class given is cell-based.

The target in data set [22] is T20, M4 (Homo sapiens, UniProt P08173).
T20 construct: host or cells: Chem-1 cells with promiscuous Gα15
T20 sequence (P08173 whole entry): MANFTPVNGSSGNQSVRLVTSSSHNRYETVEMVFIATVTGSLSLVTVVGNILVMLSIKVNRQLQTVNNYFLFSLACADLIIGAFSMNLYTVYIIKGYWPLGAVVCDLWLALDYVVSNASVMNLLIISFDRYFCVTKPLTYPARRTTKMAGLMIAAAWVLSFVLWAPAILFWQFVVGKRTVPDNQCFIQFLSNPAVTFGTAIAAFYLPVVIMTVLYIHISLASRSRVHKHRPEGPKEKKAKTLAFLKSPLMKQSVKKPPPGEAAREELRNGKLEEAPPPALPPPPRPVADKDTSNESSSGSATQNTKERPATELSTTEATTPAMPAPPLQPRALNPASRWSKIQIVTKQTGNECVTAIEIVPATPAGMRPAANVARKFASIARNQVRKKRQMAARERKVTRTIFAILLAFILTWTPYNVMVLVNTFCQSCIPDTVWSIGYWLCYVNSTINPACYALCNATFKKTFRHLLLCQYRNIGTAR
Nature of the data set: GPCR Profiler. Type of data set: cell-based.

The target of data set [23] is T21, MCHR1 (Homo sapiens, UniProt Q99705).
T21 construct: host or cells: Chem-1 cells with promiscuous Gα15
T21 sequence (Q99705 whole entry, species assumed): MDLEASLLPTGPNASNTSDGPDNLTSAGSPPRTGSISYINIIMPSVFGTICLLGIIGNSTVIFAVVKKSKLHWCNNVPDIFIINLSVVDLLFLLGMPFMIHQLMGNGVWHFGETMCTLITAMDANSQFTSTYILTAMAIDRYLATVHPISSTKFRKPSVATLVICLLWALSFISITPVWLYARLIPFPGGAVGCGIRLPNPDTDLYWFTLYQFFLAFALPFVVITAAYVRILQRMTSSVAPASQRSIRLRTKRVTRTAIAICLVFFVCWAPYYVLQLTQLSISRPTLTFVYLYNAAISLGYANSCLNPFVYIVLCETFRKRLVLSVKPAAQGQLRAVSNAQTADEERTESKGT
Nature of the data set: GPCR Profiler. Type of data set: cell-based. The note with it: 12.5 uM.

Data set [24] has as its target T22, OX1 (Homo sapiens, UniProt O43613).
T22 construct: host or cells: Chem-1 cells expressing Gα15
Nature of the data set: GPCR Profiler. The class given is cell-based.

For data set [25], the target named is T23, P2Y11 (Homo sapiens, UniProt Q96G91).
T23 construct: host or cells: Chem-1 cells expressing Gα15
T23 sequence (Q96G91 whole entry, species assumed): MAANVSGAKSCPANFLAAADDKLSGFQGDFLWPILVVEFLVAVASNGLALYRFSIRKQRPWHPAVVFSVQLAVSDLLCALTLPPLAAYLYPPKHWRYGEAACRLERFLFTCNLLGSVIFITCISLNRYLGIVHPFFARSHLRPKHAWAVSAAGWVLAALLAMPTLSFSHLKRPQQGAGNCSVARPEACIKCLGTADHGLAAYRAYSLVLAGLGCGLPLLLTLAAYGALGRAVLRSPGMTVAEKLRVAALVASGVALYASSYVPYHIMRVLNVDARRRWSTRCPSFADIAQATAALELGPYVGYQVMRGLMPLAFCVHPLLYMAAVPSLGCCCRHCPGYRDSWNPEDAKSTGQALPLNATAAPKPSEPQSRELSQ
Kind of data set: GPCR Profiler. The class given is cell-based.

Data set [26] concerns the target T24, TRH (Homo sapiens, UniProt P34981).
T24 construct: host or cells: Chem-1 cells with Gα15
Nature of the data set: GPCR Profiler. The class given is cell-based.

In data set [27] the test system is HEK293. Type of data set: cell-based. From the text: FIG. 59A through FIG. 59D: OGM2 causes specific cell death in glioblastoma cells.
Thus, in contrast to erastin, OGM2 induces ferroptosis selectively in cancer cells.

The subject of data set [28] is HKSA-induced ALI. Kind of data set: HKSA-induced acute lung injury. Type of data set: in vivo, C57Bl mice. The note with it: OGM2 40 mg/kg. Here is the method: FIG. 37A through FIG. 37D: OGM2 attenuates HKSA- and LPS-induced acute lung injury (ALI) in vivo. FIG. 37A: GPR68 mRNA is markedly elevated in lungs, heart and brain of HKSA-challenged (5×10^7/kg, i/n, 18 hr) C57Bl mice). FIG. 37B: LPS (0.7 mg/kg intratracheal) and […] ALI in mice markedly increases mRNA expression of GPR68, relative to GPR4, GPR65, and GPR132; *p<0.01 vs. vehicle; n=3.

T18 sequence (P41597 1-360 isoform P41597-2): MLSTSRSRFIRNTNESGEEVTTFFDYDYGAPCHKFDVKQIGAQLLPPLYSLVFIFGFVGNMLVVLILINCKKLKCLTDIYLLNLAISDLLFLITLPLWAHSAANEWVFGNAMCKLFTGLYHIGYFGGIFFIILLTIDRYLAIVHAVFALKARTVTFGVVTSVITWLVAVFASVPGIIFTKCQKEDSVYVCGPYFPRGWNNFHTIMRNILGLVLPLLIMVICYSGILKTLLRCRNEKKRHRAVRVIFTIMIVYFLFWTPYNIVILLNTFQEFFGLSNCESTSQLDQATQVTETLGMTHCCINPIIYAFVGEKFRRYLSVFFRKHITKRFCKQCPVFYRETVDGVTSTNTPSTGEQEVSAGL
T24 sequence (P34981 whole entry): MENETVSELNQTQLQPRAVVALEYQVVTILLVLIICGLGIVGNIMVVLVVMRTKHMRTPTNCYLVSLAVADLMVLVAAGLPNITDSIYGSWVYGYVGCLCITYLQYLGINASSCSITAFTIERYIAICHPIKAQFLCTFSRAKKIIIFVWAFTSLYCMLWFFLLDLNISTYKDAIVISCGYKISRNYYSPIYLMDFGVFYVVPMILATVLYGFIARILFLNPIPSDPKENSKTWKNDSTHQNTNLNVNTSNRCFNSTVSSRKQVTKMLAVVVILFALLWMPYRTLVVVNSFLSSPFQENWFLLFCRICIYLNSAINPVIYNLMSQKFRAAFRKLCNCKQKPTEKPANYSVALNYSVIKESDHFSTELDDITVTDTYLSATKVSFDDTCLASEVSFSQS
T22 sequence (O43613 whole entry): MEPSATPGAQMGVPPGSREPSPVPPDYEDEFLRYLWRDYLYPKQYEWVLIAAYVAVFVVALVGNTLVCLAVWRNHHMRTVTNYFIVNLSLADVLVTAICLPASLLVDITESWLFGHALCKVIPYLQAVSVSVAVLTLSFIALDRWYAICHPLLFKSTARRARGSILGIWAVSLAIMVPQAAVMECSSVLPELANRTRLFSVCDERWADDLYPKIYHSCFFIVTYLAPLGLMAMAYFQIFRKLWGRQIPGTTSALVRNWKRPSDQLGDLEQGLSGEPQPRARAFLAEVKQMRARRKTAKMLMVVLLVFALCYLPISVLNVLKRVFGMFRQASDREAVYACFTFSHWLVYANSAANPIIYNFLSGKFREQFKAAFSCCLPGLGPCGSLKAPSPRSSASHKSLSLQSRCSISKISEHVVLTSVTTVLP
T17 sequence (P21730 whole entry, species assumed): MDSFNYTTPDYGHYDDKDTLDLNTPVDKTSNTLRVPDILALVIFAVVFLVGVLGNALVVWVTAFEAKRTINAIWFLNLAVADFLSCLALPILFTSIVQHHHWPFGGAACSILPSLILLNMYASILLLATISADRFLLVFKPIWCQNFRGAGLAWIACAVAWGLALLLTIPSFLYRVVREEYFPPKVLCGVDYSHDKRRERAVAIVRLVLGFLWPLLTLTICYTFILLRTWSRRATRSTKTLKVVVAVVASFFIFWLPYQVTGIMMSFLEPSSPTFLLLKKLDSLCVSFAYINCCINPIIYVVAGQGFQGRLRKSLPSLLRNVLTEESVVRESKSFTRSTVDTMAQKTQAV
T1 sequence (Q04771 208-502 limits assumed): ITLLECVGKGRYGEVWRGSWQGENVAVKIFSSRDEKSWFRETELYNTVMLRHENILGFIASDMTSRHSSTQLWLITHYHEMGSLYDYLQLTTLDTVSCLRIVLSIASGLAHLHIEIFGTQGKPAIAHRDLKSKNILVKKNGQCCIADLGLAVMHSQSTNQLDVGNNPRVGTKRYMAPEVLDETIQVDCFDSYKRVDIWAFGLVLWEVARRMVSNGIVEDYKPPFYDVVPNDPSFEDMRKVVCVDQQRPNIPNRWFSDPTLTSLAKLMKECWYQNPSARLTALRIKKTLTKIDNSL

Take `CCc1ccc2c(c1)C1(NN=C(c3cccc4ccccc34)S1)C(=O)N2` (stereo not drawn) [OGM1, 5-ethyl-5′-naphthalen-1-ylspiro[1H-indole-3,2′-3H-1,3,4-thiadiazole]-2-one]: the remaining binding at 10 µM in data set [1] turned out to be 100%; in data set [2], 100%; in data set [3], 93%; in data set [4], 64%; in [5], 83%; in data set [6], 100%. Also, the remaining binding at 10 µM turned out to be 92% in data set [8]; 100% in [9]; 100% in data set [10]; 100% in [11]; 78% in [12]; 95% in data set [13]. Besides, the remaining binding at 10 µM in [14] is 95%; in data set [15], 96%; in [16] it was 100%; in [17], 74%; in [18] it was 100%. Further, the “% Control” value in data set [7] is recorded as 100%. In addition, the Antagonism in [19] (10 uM) is given as −0.7; in data set [20] (10 uM) it was 0.7; in data set [21] (10 uM), −6; in [22] (10 uM), −2.8; in data set [24] (10 uM), 1.6; in [25] (10 uM), −8.2. The compound also displayed an Antagonism in data set [26] (10 uM) of 1.4. Also, the Agonism was 3.1 in data set [19] (12.5 uM); 0.7 in [20] (12.5 uM); 0.2 in data set [21] (12.5 uM); −0.6 in [22] (12.5 uM); −0.4 in data set [23]; 1.4 in data set [24] (12.5 uM). For the same compound, the results for the Agonism in data set [25] (12.5 uM) and in [26] (12.5 uM) were −0.1 and 0.1, respectively.

With `CCc1ccc2c(c1)C1(NN=C(c3ccccc3)S1)C(=O)N2` (stereo not drawn) [OGM2], in [27], the “HEK293 cell viability / survival” value was “no effect”. Further, in [28] (3 hr post administration), the “lung vascular leak (Evans blue-labeled albumin)” value is given as “significantly attenuated”. In data set [28] (i.p.), the “inflammatory cytokine (TNFα, IL-6, KC, IL-1β) transcripts in the lungs” value was “significantly attenuated induction”.
